Results taken from ChEMBL document CHEMBL1134995, “Enhancement of pharmacokinetic properties and in vivo efficacy of benzylidene ketal M(2) muscarinic receptor antagonists via benzamide modification” (Bioorg Med Chem Lett, 2002).
Calls of active or inactive are those of the source. The calls are words filed in the database; no cut-off is given here.

Columns and labels:
[1] = biological target: T1, Muscarinic acetylcholine receptor M2 (Rattus norvegicus, UniProt P10980); experiment: Binding affinity towards Muscarinic acetylcholine receptor M2
T1 sequence (P10980 whole entry): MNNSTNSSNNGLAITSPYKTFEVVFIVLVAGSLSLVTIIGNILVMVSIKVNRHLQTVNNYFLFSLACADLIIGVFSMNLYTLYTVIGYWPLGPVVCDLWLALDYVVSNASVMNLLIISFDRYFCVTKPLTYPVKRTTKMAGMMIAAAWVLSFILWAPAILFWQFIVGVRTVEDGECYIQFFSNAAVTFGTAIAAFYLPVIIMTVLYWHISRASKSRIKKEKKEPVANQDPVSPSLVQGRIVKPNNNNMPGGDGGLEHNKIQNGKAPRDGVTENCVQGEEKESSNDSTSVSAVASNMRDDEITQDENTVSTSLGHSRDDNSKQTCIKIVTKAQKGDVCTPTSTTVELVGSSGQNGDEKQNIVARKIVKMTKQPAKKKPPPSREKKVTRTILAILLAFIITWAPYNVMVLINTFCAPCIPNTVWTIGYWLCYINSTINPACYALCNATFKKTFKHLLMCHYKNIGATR

[2] = biological target: Muscarinic receptor M1 and M2 (Rattus norvegicus) (UniProt P08482+P10980); experiment: Ratio of binding affinity of muscarinic M1 receptor to muscarinic M2 receptor; format: protein assay
Muscarinic receptor M1 and M2 (Rattus norvegicus), sequence (P08482 whole entry, looked up, one chain of several): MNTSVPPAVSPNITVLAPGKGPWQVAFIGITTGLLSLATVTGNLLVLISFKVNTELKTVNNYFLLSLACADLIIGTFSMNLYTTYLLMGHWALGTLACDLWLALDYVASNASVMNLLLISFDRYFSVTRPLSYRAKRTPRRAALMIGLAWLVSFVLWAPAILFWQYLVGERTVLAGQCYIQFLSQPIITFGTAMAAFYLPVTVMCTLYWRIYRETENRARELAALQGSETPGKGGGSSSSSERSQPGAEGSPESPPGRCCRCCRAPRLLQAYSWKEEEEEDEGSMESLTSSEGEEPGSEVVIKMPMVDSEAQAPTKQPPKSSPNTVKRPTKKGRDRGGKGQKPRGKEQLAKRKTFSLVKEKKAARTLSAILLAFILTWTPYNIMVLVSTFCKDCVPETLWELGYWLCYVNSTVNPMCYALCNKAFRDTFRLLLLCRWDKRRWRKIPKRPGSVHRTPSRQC

[3] = biological target: Muscarinic receptor M2 and M3 (Rattus norvegicus) (UniProt P08483+P10980); experiment: Ratio of binding affinity for muscarinic M3 receptor to muscarinic M2 receptor; format: protein assay
Muscarinic receptor M2 and M3 (Rattus norvegicus), sequence (P08483 whole entry, looked up, one chain of several): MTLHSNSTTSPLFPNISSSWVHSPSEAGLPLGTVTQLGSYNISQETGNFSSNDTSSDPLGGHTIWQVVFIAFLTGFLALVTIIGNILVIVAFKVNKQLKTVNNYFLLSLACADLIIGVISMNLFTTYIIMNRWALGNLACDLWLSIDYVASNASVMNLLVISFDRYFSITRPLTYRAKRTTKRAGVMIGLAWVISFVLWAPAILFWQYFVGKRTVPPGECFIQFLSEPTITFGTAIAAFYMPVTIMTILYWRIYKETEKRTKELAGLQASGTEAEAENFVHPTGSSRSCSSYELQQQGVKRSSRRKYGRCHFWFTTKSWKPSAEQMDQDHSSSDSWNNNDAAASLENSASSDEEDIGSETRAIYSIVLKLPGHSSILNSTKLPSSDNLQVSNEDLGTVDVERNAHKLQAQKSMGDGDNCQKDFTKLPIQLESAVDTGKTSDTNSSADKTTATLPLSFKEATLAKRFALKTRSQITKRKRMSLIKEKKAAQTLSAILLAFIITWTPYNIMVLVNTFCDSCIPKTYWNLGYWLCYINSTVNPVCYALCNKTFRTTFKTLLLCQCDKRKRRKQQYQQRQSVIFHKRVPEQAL

Rattus norvegicus [4] = organism: Rattus norvegicus; experiment: Efficacy was tested in a rat microdialysis assay where ACh release levels were measured; format: functional
[5] = Oral bioavailability in rats was determined; High; format: ADME, organism-based; conditions: rat, in vivo
Rattus norvegicus [6] = experiment: Compound was tested for activity in rat passive avoidance response (PAR) experiment, pretreatment time 1 hr with oral dose ranging from 0.001 to 0.1 mg/kg; Active; format: functional, organism-based
[7] = Area under curve was determined
[8] = Oral bioavailability in cynomolgus monkeys was determined; Acceptable; format: ADME, organism-based, Macaca fascicularis; conditions: cynomolgus monkey, in vivo
Rattus norvegicus [9] = experiment: Effect of compound on heart rate in rats at 1 mg/kg was determined; Not effected; format: functional, organism-based; design: dose 1 mg/kg
Rattus norvegicus [10] = experiment: Effect of compound on heart rate in rats at 3 and 10 mg/kg was determined; Increase; format: functional, organism-based; design: dose 10 mg/kg

| SMILES | Ki [1] [nM] | Ratio [2] | further results |
| --- | --- | --- | --- |
| COc1ccc(S(=O)(=O)c2ccc(C3(C4CCN(C5CCN(C(=O)c6ccccc6Br)CC5)CC4)OCCO3)cc2)cc1 | 1.8 |  |  |
| COc1ccc(S(=O)(=O)c2ccc(C3(C4CCN(C5CCN(C(=O)c6ccccc6Cl)CC5)CC4)OCCO3)cc2)cc1 | 1.6 |  |  |
| COc1ccc(S(=O)(=O)c2ccc(C3(C4CCN(C5CCN(C(=O)c6ccccc6C(F)(F)F)CC5)CC4)OCCO3)cc2)cc1 | 1 |  |  |
| COc1ccc(S(=O)(=O)c2ccc(C3(C4CCN(C5CCN(C(=O)c6cc(N)ccc6Cl)CC5)CC4)OCCO3)cc2)cc1 | 0.53 |  |  |
| COc1ccc(S(=O)(=O)c2ccc(C3(C4CCN(C5CCN(C(=O)c6cccc(N)c6)CC5)CC4)OCCO3)cc2)cc1 | 0.78 |  |  |
| COc1ccc(S(=O)(=O)c2ccc(C3(C4CCN(C5CCN(C(=O)c6cccc(F)c6N)CC5)CC4)OCCO3)cc2)cc1 | 0.51 |  |  |
| COc1ccc(S(=O)(=O)c2ccc(C3(C4CCN(C5CCN(C(=O)c6cccc(N)c6C)CC5)CC4)OCCO3)cc2)cc1 | 0.4 |  |  |
| COc1ccc(S(=O)(=O)c2ccc(C3(C4CCN(C5CCN(C(=O)c6c(Cl)cccc6Cl)CC5)CC4)OCCO3)cc2)cc1 | 2.3 |  |  |
| COc1ccc(S(=O)(=O)c2ccc(C3(C4CCN(C5CCN(C(=O)c6ccccc6C)CC5)CC4)O[C@H](C)[C@@H](C)O3)cc2)cc1 | 18 | 32 |  |
| COc1ccc(S(=O)(=O)c2ccc(C3(C4CCN(C5CCN(C(=O)c6ccccc6N)CC5)CC4)OCCO3)cc2)cc1 | 1.5 |  |  |
| COc1ccc(S(=O)(=O)c2ccc(C3(C4CCN(C5CCN(C(=O)c6cccc(C)c6C)CC5)CC4)OCCO3)cc2)cc1 | 1.4 | 66 | Ratio [3]: 40 |
| COc1ccc(S(=O)(=O)c2ccc(C3(C4CCN(C5CCN(C(=O)c6ccc(F)cc6N)CC5)CC4)OCCO3)cc2)cc1 | 0.44 |  |  |
| Cc1ccccc1C(=O)N1CCC(N2CCC(C3(c4ccc(S(=O)(=O)c5ccc6c(c5)OCO6)cc4)OCCO3)CC2)CC1 | 0.065 | 28 | Ratio [3]: 8 |
| COc1ccc([S+]([O-])c2ccc(C3(C4CCN(C5CCN(C(=O)c6ccccc6C)CC5)CC4)OCCO3)cc2)cc1 (configuration not stated) | 2.5 | 146 | Ratio [3]: 35 |
| COc1ccc(S(=O)(=O)c2ccc(C3(C4CCN(C5CCN(C(=O)c6ccccc6C)CC5)CC4)OCCO3)cc2)cc1 | 0.54 |  |  |
| COc1ccc([S+]([O-])c2ccc(C3(C4CCN(C5CCN(C(=O)c6ccccc6C)CC5)CC4)O[C@H](C)[C@@H](C)O3)cc2)cc1 (some centres not stated) | 51 | 14 |  |
| COc1ccc(S(=O)(=O)c2ccc(C3(C4CCN(C5CCN(C(=O)c6cccc(N)c6Cl)CC5)CC4)OCCO3)cc2)cc1 | 0.53 |  | Acetylcholine release (Rattus norvegicus [4]): 135% |
| COc1ccc(S(=O)(=O)c2ccc(C3(C4CCN(C5CCN(C(=O)c6cccc(Cl)c6C)CC5)CC4)OCCO3)cc2)cc1 | 0.72 | 42 |  |
| COc1ccc(S(=O)(=O)c2ccc(C3(C4CCN(C5CCN(C(=O)c6cccc(C)c6N)CC5)CC4)OCCO3)cc2)cc1 | 0.39 |  | bioavailability [5]: 80%; Activity (Rattus norvegicus [6]): Active; Acetylcholine release (Rattus norvegicus [4]): 194%; AUC [7]: 1570 ng·h/mL; bioavailability [8]: 15%; Heart rate (Rattus norvegicus [9]): inactive; Heart rate (Rattus norvegicus [10]): Increased heart rate |
| COc1ccc(S(=O)(=O)c2ccc(C3(C4CCN(C5CCN(C(=O)c6ccc(F)c7ccccc67)CC5)CC4)OCCO3)cc2)cc1 |  |  | Acetylcholine release (Rattus norvegicus [4]): 180% |
| COc1ccc(S(=O)(=O)c2ccc(C3(C4CCN(C5CCN(C(=O)c6ccccc6OC)CC5)CC4)OCCO3)cc2)cc1 | 1.2 |  |  |
| COc1ccc(S(=O)(=O)c2ccc(C3(C4CCN(C5CCN(C(=O)c6cccc(Cl)c6N)CC5)CC4)OCCO3)cc2)cc1 | 1.1 |  |  |
| COc1ccc(S(=O)(=O)c2ccc(C3(C4CCN(C5CCN(C(=O)c6ccccc6F)CC5)CC4)OCCO3)cc2)cc1 | 4.8 | 49 | Ratio [3]: 8 |
| CNc1ccccc1C(=O)N1CCC(N2CCC(C3(c4ccc(S(=O)(=O)c5ccc(OC)cc5)cc4)OCCO3)CC2)CC1 | 0.9 |  |  |
| COc1ccc(S(=O)(=O)c2ccc(C3(C4CCN(C5CCN(C(=O)c6ccccc6C)CC5)CC4)SCCS3)cc2)cc1 | 0.86 | 89 | Ratio [3]: 15 |
| COc1ccc(S(=O)(=O)c2ccc(C3(C4CCN(C5CCN(C(=O)c6cc(F)ccc6N)CC5)CC4)OCCO3)cc2)cc1 | 0.68 |  |  |
